One series concerns the target D(3) dopamine receptor (Homo sapiens, UniProt P35462). The experiment in a line: biochemical.
A further series has as its target D(2) dopamine receptor (Homo sapiens, UniProt P14416). In words: biochemical.
A short description of series [1]: Oral bioavailability in rat. The format is ADME, organism-based. The note with it: in vivo.

The structures appear in SMILES notation.

Sequence of D(2) dopamine receptor (P14416 whole entry): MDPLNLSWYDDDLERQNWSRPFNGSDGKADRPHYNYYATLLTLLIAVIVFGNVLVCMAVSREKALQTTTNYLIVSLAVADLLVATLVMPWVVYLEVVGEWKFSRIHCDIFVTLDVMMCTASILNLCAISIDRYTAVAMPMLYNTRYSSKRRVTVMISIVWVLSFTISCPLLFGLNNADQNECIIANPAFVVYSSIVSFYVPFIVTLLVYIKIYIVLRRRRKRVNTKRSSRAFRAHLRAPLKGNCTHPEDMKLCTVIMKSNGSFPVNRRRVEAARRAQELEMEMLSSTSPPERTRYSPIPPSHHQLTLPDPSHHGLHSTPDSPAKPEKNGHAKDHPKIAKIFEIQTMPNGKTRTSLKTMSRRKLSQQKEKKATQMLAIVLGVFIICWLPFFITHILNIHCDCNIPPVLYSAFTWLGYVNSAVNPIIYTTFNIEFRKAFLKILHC
Sequence of D(3) dopamine receptor (P35462 whole entry): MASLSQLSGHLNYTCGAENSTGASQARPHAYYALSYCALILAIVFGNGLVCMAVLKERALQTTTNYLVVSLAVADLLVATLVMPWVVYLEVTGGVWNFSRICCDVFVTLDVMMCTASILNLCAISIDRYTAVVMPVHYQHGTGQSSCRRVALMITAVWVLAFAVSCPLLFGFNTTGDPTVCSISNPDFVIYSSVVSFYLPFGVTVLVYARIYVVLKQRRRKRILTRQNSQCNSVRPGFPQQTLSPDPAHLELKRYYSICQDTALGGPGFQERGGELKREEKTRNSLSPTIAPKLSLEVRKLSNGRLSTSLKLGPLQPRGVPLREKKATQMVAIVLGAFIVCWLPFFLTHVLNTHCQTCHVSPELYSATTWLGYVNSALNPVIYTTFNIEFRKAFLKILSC
Description for D(2) dopamine receptor: In vitro binding affinity at human Dopamine receptor D2 expressed in CHO K1 cells was measured by its ability to displace [3H]- N-0437
Description for D(3) dopamine receptor: In vitro binding affinity at human Dopamine receptor D3 expressed in CHO K1 cells was measured by its ability to displace [3H]spiperone

A word on the Ki: it is the equilibrium dissociation constant of an inhibitor or competing ligand from its target. Lower therefore signals higher affinity. With `CCCN1CCOC2c3ccsc3CCC21` (stereo unspecified), the Ki on D(3) dopamine receptor stood at 240 nM; at D(2) dopamine receptor it was 630 nM.

On to `CCCN(CCc1ccsc1)CCc1cccs1`, for which the inhibition constant Ki came to 117 nM at D(3) dopamine receptor and 1080 nM at D(2) dopamine receptor.

Broadly, the bioavailability is dose-corrected exposure relative to a reference, in per cent. Low values mean little systemic uptake, high ones much systemic uptake. Turning to `CCCN(CCC)C1CCc2sccc2C1` (stereo unspecified), the bioavailability in series [1] is > 10%. The Ki on D(3) dopamine receptor came out at 40 nM; on D(2) dopamine receptor it was 20 nM.

With `CCCN(CCC)C1CCc2ccsc2C1` (stereo unspecified), the bioavailability in series [1] amounted to 10%. The values for the inhibitory constant (Ki) on D(3) dopamine receptor and at D(2) dopamine receptor were 28 nM and 27 nM, respectively.

As to `CCCN(CCC)CC1CCc2ccsc2C1` (stereo unspecified), the inhibition constant (Ki) was 60 nM on D(3) dopamine receptor and 3110 nM at D(2) dopamine receptor.

As to `CCCN(CCC)CC1CCc2sccc2C1` (stereo unspecified), the Ki on D(3) dopamine receptor is 247 nM; at D(2) dopamine receptor, 2040 nM.

In the case of `CCCN(CCc1ccsc1)CCc1ccsc1`, the inhibition constant (Ki) is 108 nM at D(3) dopamine receptor and 439 nM at D(2) dopamine receptor.

With `CCCN(CCC)[C@@H]1Cc2cccc(O)c2C[C@H]1C`, the figures for the Ki on D(3) dopamine receptor and on D(2) dopamine receptor were 0.54 nM and 14 nM, respectively.

As for `c1cc2c(s1)CCC1NCCOC21` (stereo unspecified), the Ki on D(3) dopamine receptor is 3000 nM; on D(2) dopamine receptor, > 4780 nM.

As for `Oc1ccc2c(c1)C1OCCN(CCc3cccs3)C1CC2` (racemic), the inhibition constant Ki is 83 nM on D(3) dopamine receptor and 3680 nM at D(2) dopamine receptor.

On to `Oc1ccc2c(c1)C1OCCN(CCc3ccccc3)C1CC2` (racemic), for which the results for the Ki on D(3) dopamine receptor and at D(2) dopamine receptor were 1570 nM and > 3680 nM, respectively.

`CCCN1CC(c2ccccc2)OC2c3cc(O)ccc3CCC21` (racemic): the Ki on D(3) dopamine receptor was 12 nM; at D(2) dopamine receptor, 375 nM.
